Consider 19 molecules from patent US7531539B2, “Pyrrolotriazine kinase inhibitors” (Bristol-Myers Squibb Company, priority 2006, dated 2009).

By IC50 is commonly meant the point on the concentration scale where inhibition reaches its midpoint. Low values mean higher potency, high ones lower potency.

Holding throughout (type): biochemical
Assay [1] has as its target T1, kinase domain of the human TrkA receptor (Homo sapiens, UniProt P04629).
T1 construct: The kinase domain of the human TrkA receptor is expressed in Sf9 insect cells as a histidine (His)-fusion protein; His; made in house; host or cells: Sf9 insect cells (baculovirus)
Description: TrkA tyrosine kinase assay (33P, polyGluTyr substrate). Conditions: 30 uM ATP, 0.1 mg/ml PGT. The text has this: The ability of compounds of the present invention to inhibit tyrosine kinase activity of TrkA may be measured using a recombinant enzyme in an assay that measures the ability of compounds to inhibit the phosphorylation of the exogenous substrate, polyGluTyr (PGT, 4:1). The kinase domain of the human TrkA receptor is expressed in Sf9 insect cells as a histidine (His)-fusion protein using a baculovirus expression system. The protein is purified from the lysates of these cells using an Ni—NTA affinity column. After the recombinant enzyme is purified, it is activated by incubation with cold ATP. The enzyme assay is performed in a 96-well plate. Test compounds are first dissolved in dimethylsulfoxide (DMSO) and then serially-diluted in a 96-well plate. The serially-diluted compounds are transferred to the 96-well assay plate so that the final concentration of DMSO in the enzyme assay is 1.64%. All assay components are diluted in phosphorylation buffer (20 mm MOPS, 10 mM MgCl2, 1 mM EDTA, 0.015% Brij-35, […], 0.0025% Beta-Mercaptoethanol). The recombinant enzyme is added to the assay plate containing test compound and the reaction is initiated with a substrate solution containing a final concentration of 0.1 mg/ml PGT, 30 uM ATP, and 0.008 mCi/ml ^33P-gammaATP (3000 Ci/mmol). After a 1 hour incubation at 30° C., the reaction is terminated with 10% TCA and incubated at 4° C. for 1 hour. The reaction is filtered onto a Unifilter® GF/C™ filter plate that has been presoaked with 0.1M NaPyrophosphate. Microscint-20 is then added to the dried filter plate and the captured ^33P-phosphorylated PGT is quantitated on a microscintillation plate counter (TopCount.NXT™). Inhibition of the kinase enzymatic activity by the test compound is detected by a reduction in scintillation, and the concentration of compound that is required to inhibit the signal by 50% is reported as the IC50 value for the test compound.
(§1) Compounds described herein were tested in the TrkA and TrkB assays described above.

Assay [2] has as its target T2, kinase domain of the human TrkB receptor (amino acids 526-838) (Homo sapiens, UniProt Q16620).
T2 construct: human TrkB receptor (amino acids 526-838); His; purchased Invitrogen; host or cells: insect cells
Description: TrkB tyrosine kinase assay (33P, polyGluTyr substrate). Conditions: 30 uM ATP, 0.1 mg/ml PGT. The procedure:
The ability of compounds of the present invention to inhibit tyrosine kinase activity of TrkB may be measured using a recombinant enzyme in an assay that measures the ability of compounds to inhibit the phosphorylation of the exogenous substrate, polyGluTyr (PGT, 4:1). The kinase domain of the human TrkB receptor (amino acids 526-838) is expressed in insect cells as a histidine (His)-fusion protein and is commercially available from Invitrogen™. The enzyme assay is performed in a 96-well plate. Test compounds are first dissolved in dimethylsulfoxide (DMSO) and then serially-diluted in a 96-well plate. The serially-diluted compounds are transferred to the 96-well assay plate so that the final concentration of DMSO in the enzyme assay is 1.64%. All assay components are diluted in phosphorylation buffer (20 mm MOPS, 10 mM MgCl2, 1 mM EDTA, 0.015% Brij-35, 0.1 mg/ml BSA, 0.0025% Beta-Mercaptoethanol). The recombinant enzyme is added to the assay plate containing test compound and the reaction is initiated with a substrate solution containing a final concentration of 0.1 mg/ml PGT, 30 uM ATP, and 0.008 mCi/ml ^33P-gammaATP (3000 Ci/mmol). After a 1 hour incubation at 30° C., the reaction is terminated with 10% TCA and incubated at 4° C. for 1 hour. The reaction is filtered onto a Unifilter® GF/C™ filter plate that has been pre-soaked with 0.1M NaPyrophosphate. Microscint-20 is then added to the dried filter plate and the captured ^33P-phosphorylated PGT is quantitated on a microscintillation plate counter (TopCount.NXT™). Inhibition of the kinase enzymatic activity by the test compound is detected by a reduction in scintillation, and the concentration of compound that is required to inhibit the signal by 50% is reported as the IC50 value for the test compound.
as §1

Assay [3] addresses Casein Kinase 2 A2 kinase (Homo sapiens, UniProt P19784). Description: CK2A2 kinase assay (33P, TCA precipitation). The procedure: (§2) Incubation mixtures employed for the Casein Kinase 2 A2 kinase assay contain Casein Kinase 2 A2 kinase, a synthetic peptide substrate, ATP, ATP-γ^33P and a Hepes buffer containing Mg^++, NaCl, DTT, and Brij-35. Reactions were incubated for 60 minutes at 30° C. and stopped by the addition of trichloroacetic acid (TCA) to a final concentration 8%. TCA precipitates were collected onto GF/C unifilter plates using a Filtermate universal harvester and the filters are quantitated using a TopCount 96/384-well liquid scintillation counter. Dose response curves were generated to determine the concentration required to inhibit 50% of kinase activity (IC^50). Compounds were dissolved at 10 mM in dimethyl sulfoxide (DMSO) and evaluated at ten concentrations, each in duplicate. The final concentration of DMSO in the assay is 1.7%. IC50 values were derived by non-linear regression.

Assay [4] addresses Casein Kinase 2 A1 kinase (Homo sapiens, UniProt P68400). Description: CK2A1 kinase assay (33P, TCA precipitation). The procedure: as §2, with “2 A1” for “2 A2”, “contain Casecin” for “contain Casein”, “ATP, ATP-γ-^33 P” for “ATP, ATP-γ^33P”, “containing Mg^2+,” for “containing Mg^++,”, “activity (IC50).” for “activity (IC^50).”

Sequence of Casein Kinase 2 A1 kinase (P68400 whole entry): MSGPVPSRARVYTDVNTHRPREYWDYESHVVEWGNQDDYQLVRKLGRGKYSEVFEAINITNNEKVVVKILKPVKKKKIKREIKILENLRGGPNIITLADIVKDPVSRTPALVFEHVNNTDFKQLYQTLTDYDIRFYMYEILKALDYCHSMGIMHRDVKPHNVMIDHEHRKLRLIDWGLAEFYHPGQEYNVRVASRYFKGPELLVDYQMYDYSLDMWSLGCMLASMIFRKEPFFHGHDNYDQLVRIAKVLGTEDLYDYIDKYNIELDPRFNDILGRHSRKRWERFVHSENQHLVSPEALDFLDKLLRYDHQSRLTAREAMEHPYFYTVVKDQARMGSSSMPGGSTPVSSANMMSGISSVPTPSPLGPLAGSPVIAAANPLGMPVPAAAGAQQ
T2 sequence (Q16620 510-822): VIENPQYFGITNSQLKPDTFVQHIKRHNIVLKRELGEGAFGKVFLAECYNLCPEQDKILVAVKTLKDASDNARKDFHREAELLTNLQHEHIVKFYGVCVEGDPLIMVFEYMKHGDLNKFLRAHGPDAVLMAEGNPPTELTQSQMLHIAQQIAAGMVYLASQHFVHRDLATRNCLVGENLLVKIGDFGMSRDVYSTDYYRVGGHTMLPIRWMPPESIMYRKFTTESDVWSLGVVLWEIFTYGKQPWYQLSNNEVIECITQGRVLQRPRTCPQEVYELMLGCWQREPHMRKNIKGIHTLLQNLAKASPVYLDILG
T1 sequence (P04629 510-781 limits assumed): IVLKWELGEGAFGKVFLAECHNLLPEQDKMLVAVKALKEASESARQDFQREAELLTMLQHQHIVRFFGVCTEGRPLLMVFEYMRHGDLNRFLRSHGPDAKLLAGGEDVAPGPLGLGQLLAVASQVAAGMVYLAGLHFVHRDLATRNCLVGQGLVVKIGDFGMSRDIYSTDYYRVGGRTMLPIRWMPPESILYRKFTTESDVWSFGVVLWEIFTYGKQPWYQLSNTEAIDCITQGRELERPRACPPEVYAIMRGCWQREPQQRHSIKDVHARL
Sequence of Casein Kinase 2 A2 kinase (P19784 whole entry): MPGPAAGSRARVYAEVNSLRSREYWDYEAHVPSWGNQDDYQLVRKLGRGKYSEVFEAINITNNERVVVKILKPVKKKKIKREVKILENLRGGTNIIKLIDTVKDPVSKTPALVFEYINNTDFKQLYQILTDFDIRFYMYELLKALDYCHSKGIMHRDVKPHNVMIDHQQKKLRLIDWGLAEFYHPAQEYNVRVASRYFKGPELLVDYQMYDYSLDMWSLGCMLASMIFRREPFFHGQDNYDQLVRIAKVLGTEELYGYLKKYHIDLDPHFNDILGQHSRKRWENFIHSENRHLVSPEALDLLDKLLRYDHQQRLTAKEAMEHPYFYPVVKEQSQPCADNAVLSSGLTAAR

On to `C[C@H]1C[C@@H]1c1cc(Nc2nc(N3CCC(N)CC3)nn3cccc23)[nH]n1` [Example 18, 2-(4-amino-1-piperidinyl)-N-(3-((1S,2S)-2-methylcyclopropyl)-1H-pyrazol-5-yl)pyrrolo[2,1-f][1,2,4]triazin-4-amine], for which the IC50 is 0.8 nM in assay [1] and 1 nM in assay [2].
In the case of `COc1ccc(C2CCN(c3nc(Nc4cc(C)n[nH]4)c4cccn4n3)C2)cn1` (centres unmarked) [Example 212, (3-(6-Methoxypyridin-3-yl)pyrrolidin-1-yl)-N-(3-methyl-1H-pyrazol-5-yl)pyrrolo[1,2-f][1,2,4]triazin-4-amine], the IC50 in assay [3] is 99 nM; in assay [4], 1380 nM.
For `CCc1cc(Nc2nc(N3CCC(c4ccccc4F)C3)nn3cccc23)[nH]n1` (centres unmarked) [Example 171, N-(3-Ethyl-1H-pyrazol-5-yl)-2-(3-(2-fluorophenyl)pyrrolidin-1-yl)pyrrolo[1,2-f][1,2,4]triazin-4-amine], in that order: 11 nM and 154 nM.
In the case of `Cc1cc(Nc2nc(N3CCOCC3)nn3cccc23)[nH]n1` [Example 95, N-(3-methyl-1H-pyrazol-5-yl)-2-(4-morpholinyl)pyrrolo [2,1-f][1,2,4]triazin-4-amine], the figures for the IC50 in assay [1] and in assay [2] were 23 nM and 49 nM, respectively.
As to `c1cncc(C2CCN(c3nc(Nc4cc(C5CC5)n[nH]4)c4cccn4n3)C2)c1` (centres unmarked) [Example 181, N-(3-cyclopropyl-1H-pyrazol-5-yl)-2-(3-(pyridin-3-yl)pyrrolidin-1-yl)pyrrolo[1,2-f][1,2,4]triazin-4-amine], the half-inhibitory concentration (IC50) in assay [3] was 6 nM; in assay [4] it was 84 nM.
Take `CC(C)(C)c1cc(Nc2nc(N3CCC(N)CC3)nn3cccc23)[nH]n1` [Example 21, 2-(4-amino-1-piperidinyl)-N-(3-tert-butyl-1H-pyrazol-5-yl)pyrrolo[2,1-f][1,2,4]triazin-4-amine]: the IC50 in assay [1] was found to be 56 nM; in assay [2] it was 86 nM.
Taken in the same sequence, the figures for `Cc1cc(Nc2nc(N3CCCC3)nn3cccc23)n[nH]1` [Example 75, N-(5-methyl-1H-pyrazol-3-yl)-2-(1-pyrrolidinyl)pyrrolo[2,1-f][1,2,4]triazin-4-amine] were 5 nM and 9 nM.
For `N[C@H]1CCN(c2nc(Nc3cc(C4CC4)n[nH]3)c3cccn3n2)C1` [Example 91], in that order: 5 nM and 10 nM.
Consider `NCC1CCN(c2nc(Nc3cc(-c4ccccc4)n[nH]3)c3cccn3n2)CC1` [Example 97, 2-(4-(aminomethyl)-1-piperidinyl)-N-(3-phenyl-1H-pyrazol-5-yl)pyrrolo[2,1-f][1,2,4]triazin-4-amine], for which the IC50 in assay [1] came to 24 nM; in assay [2], 48 nM.
For `NC1CCN(c2nc(Nc3cc(C4CC4)n[nH]3)c3cccn3n2)CC1` [Example 3, 2-(4-amino-1-piperidinyl)-N-(3-cyclopropyl-1H-pyrazol-5-yl)pyrrolo[2,1-f][1,2,4]triazin-4-amine], in that order: 0.6 nM and 2 nM.
On to `O=C(Cc1cccs1)NC1CCN(c2nc(Nc3cc(C4CC4)n[nH]3)c3cccn3n2)CC1` [Example 49, N-(1-(4-((3-cyclopropyl-1H-pyrazol-5-yl)amino)pyrrolo[2,1-f][1,2,4]triazin-2-yl)-4-piperidinyl)-2-(2-thienyl)acetamide], for which the half-maximal inhibitory concentration (IC50) was found to be 0.9 nM in assay [1] and 0.6 nM in assay [2].
For `NC1CCN(c2nc(Nc3ccn[nH]3)c3cccn3n2)CC1` [Example 4, 2-(4-amino-1-piperidinyl)-N-1H-pyrazol-5-ylpyrrolo[2,1-f][1,2,4]triazin-4-amine], in that order: 123 nM and 312 nM.
For `O=C(CCc1ccccc1)NC1CCN(c2nc(Nc3cc(C4CC4)n[nH]3)c3cccn3n2)CC1` [Example 43, N-(1-(4-((3-cyclopropyl-1H-pyrazol-5-yl)amino)pyrrolo[2,1-f][1,2,4]triazin-2-yl)-4-piperidinyl)-3-phenylpropanamide], in that order: 0.4 nM and 0.5 nM.
Taken in the same sequence, the figures for `NC1CCN(c2nc(Nc3cc(OCC4CC4)n[nH]3)c3cccn3n2)CC1` [Example 14, 2-(4-amino-1-piperidinyl)-N-(3-(cyclopropylmethoxy)-1H-pyrazol-5-yl)pyrrolo[2,1-f][1,2,4]triazin-4-amine] were 1 nM and 3 nM.
With `c1ccc(CNC2CCN(c3nc(Nc4cc(C5CC5)n[nH]4)c4cccn4n3)CC2)cc1` [Example 8, 2-(4-(benzylamino)-1-piperidinyl)-N-(3-cyclopropyl-1H-pyrazol-5-yl)pyrrolo[2,1-f][1,2,4]triazin-4-amine], the IC50 in assay [1] and in assay [2] was 0.3 nM each time.
Consider `Cc1cc(Nc2nc(N3CCNCC3)nn3cccc23)n[nH]1` [Example 74, N-(5-methyl-1H-pyrazol-3-yl)-2-(1-piperazinyl)pyrrolo[2,1-f][1,2,4]triazin-4-amine], for which the values for the half-inhibitory concentration (IC50) in assay [1] and in assay [2] were 120 nM and 195 nM, respectively.
For `CCC(C)c1cc(Nc2nc(N3CCC(N)CC3)nn3cccc23)[nH]n1` (centres unmarked) [Example 19, 2-(4-amino-1-piperidinyl)-N-(3-sec-butyl-1H-pyrazol-5-yl)pyrrolo[2,1-f][1,2,4]triazin-4-amine], in that order: 9 nM and 20 nM.
Taken in the same sequence, the figures for `Cc1cc(Nc2nc(N3CC[C@@H](O)C3)nn3cccc23)n[nH]1` [Example 70, (3R)-1-(4-((5-methyl-1H-pyrazol-3-yl)amino)pyrrolo[2,1-f][1,2,4]triazin-2-yl)-3-pyrrolidinol] were 23 nM and 38 nM.
Taken in the same sequence, the figures for `N#CCC(=O)NC1CCN(c2nc(Nc3cc(C4CC4)n[nH]3)c3cccn3n2)CC1` [Example 39, 2-cyano-N-(1-(4-((3-cyclopropyl-1H-pyrazol-5-yl)amino)pyrrolo[2,1-f][1,2,4]triazin-2-yl)-4-piperidinyl)acetamide] were 1 nM and 0.7 nM.
